{"source": "patent US8114645B2", "about": "(priority 2006, dated 2012)", "key": {"[1]": {"test_system": "E. coli DP10 containing pBad33MevT, pHMGS or inactive controls", "assay": "Cell growth with increased supplementation of saturated fatty acid 16:0, baffled shake flasks, OD600", "format": "cell-based"}, "[2]": {"test_system": "E. coli DP10 expressing MevT gene constructs", "assay": "Fatty acid supplementation of growth inhibited cells, 96-well plates, OD", "format": "cell-based", "conditions": "100 μg/ml fatty acid with 400 μg/ml Brij, defined C medium, 96-well plate, arabinose induced; for growth of MevT expressing cells (pBad33MevT): E. coli DP10 pBad33MevT; for growth of cells containing pHMGS: E. coli DP10 pHMGS", "procedure": "Media components and chemicals were purchased from Sigma-Aldrich (St. Louis, Mo.) and Fisher Scientific (Pittsburgh, Pa.). For cloning and propagation of E. coli strains harboring the various recombinant pathways, Luria broth with Miller's modification (Sigma) was used with appropriate antibiotics for plasmid selection and 0.06% glucose for the repression of PBAD and PLAC promoter systems. DL-mevalonate used for media supplementation was prepared by mixing 1 volume of 2 M DL-mevalonic acid lactone (Sigma-Aldrich) with 1.02 volumes of 2 M KOH and incubating at 37° C. for 30 min. Campos et al. (2001) Biochem J 353, 59-67. […] Enzymes for molecular biology were purchased from New England Biolabs (Beverly, Mass.) and Invitrogen. E. coli strains TOP 10 and DH10B, both from Invitrogen, were used for cloning and plasmid construction.\nThe optical density of samples taken from cultures in baffled flasks was measured using a UV-Spectrophotometer (Beckman), while the OD600 of cultures in 96-well microtiter plates was measured using a microtiter plate reader (SpectraMax, Molecular Devices).\nE. coli DP10 cells harboring pBad33, pBad33MevT, pMevT(C159A), pHMGS, or pHMGSR were incubated and induced in 96-well plates in fully defined C medium containing 50 μg/ml chloramphenicol (see material and methods) with supplemental cis-Δ^9-18:1, 16:0, cis-Δ^9-16:1, or a equal mass mixture of 16:0 and cis-Δ^9-16:1. […] Overnight starter cultures were used to inoculate fresh C medium in a 96-well microtiter plate."}, "[3]": {"test_system": "E. coli strains carrying a temperature sensitive fabD allele", "conditions": "Harder et al. 1972, 1974; cited from earlier work"}, "[4]": {"test_system": "E. coli DH10B harboring pBad33MevT or pBad33", "conditions": "LB with 10 g/L NaCl vs 0.5 g/L NaCl", "method": "To further test if cells inhibited by the accumulation of HMG-CoA are suffering from osmotic stress, cells harboring pBad33MevT or pBad33 (the empty vector control) were incubated and induced in Luria Broth (LB) media with low (0.5 g/L) and high (10 g/L) concentrations of NaCl. […] Both culture media were supplemented with 1% (wt/vol) glycerol and 50 μg/ml chloramphenicol. Starter cultures of DH10B harboring either pBad33MevT or pBad33 were inoculated from single colonies and incubated overnight at 37° C. in LB media supplemented with 0.06% glucose (to repress the PBAD promoter) and chloramphenicol. Overnight starter cultures were diluted to an OD600 of 0.05 in either the low or high NaCl media in baffled shake flasks, incubated at 37° C. with continuous shaking and induced with the addition of 2 mM arabinose at an OD600 of approximately 0.39. The optical density of the culture was measured using a UV-Spectrophotometer (Beckman)."}, "[5]": {"test_system": "temperature sensitive mutants of fabB", "conditions": "Broekman and Steenbakkers 1973; cited from earlier work"}, "[6]": {"test_system": "E. coli DH10B containing plasmids pMevT, pMBIS, and pADS", "assay": "Amorpha-4,11-diene production assay with mevalonate supplementation (GC-MS of dodecane overlay)", "format": "cell-based", "conditions": "exogenous mevalonate added, tested up to 20 mM D,L-mevalonate; vs no supplementation", "procedure": "Amorpha-4,11-diene production from E. coli strains expressing the full heterologous mevalonate pathway and amorphadiene synthase with or […] supplementation was assayed. E. coli DH10B containing plasmids pMevT, pMBIS, and pADS (FIGS. 5A and 5B) were grown in C medium containing 3.4% glycerol, 1% Casamino acids (BD, Franklin Lakes, N.J.), micronutrients, 50 μg/ml carbenicillin, 5 μg/ml tetracycline, and 25 μg/ml chloramphenicol with varying concentrations of exogenous mevalonate. […] Prior to inoculation, an overlay of 20% (v/v) dodecane (Sigma) was added to each culture flask to trap the volatile sesquiterpene product. […]\nDodecane/ethyl acetate extracts were analyzed on a Hewlett-Packard 6890 gas chromatograph-mass spectrometer (GC/MS). […] The resolved samples were analyzed by a Hewlett-Packard model 5973 mass selective detector that monitored ions 189 and 204 m/z. […] Since pure standards of amorpha-4,11-diene are not currently available, the concentrations were quantified in terms of caryophyllene equivalents. A standard curve for caryophyllene was determined, based on a pure standard. […]\nTo begin improving terpenoid production from engineered E. coli, limiting steps in the engineered pathway to amorphadiene were determined, as described in U.S. Pat. No. 7,183,089, U.S. Provisional Patent Application No. 60/802,266, Pitera et al. Metab Eng 9(2): 193-207 (2007), and as follows. […]"}, "E. coli": {"test_system": "E. coli", "assay": "Effect of extra-cellular mevalonate on growth of E. coli", "format": "cell-based", "conditions": "high extra-cellular concentrations"}}, "note": "Read-outs that look alike come from different tables or passages of the source."}
{"smiles": "CCCCCCCCCCCCCCCC(=O)O", "note": "[16:0, palmitic acid (hexadecanoic acid)]", "values": [{"measurement": "cell growth on increasing the concentration above 100 μg/ml", "setting": "[1]; 200 μg/ml vs 100 μg/ml, baffled shake flasks", "value": "no additional effect on cell growth"}, {"measurement": "cell growth of the inactive pathway controls", "setting": "[1]; DP10 harboring pMevT(C159A) or pHMGS(C159A), 100 or 200 μg/ml", "value": "not affected"}, {"measurement": "growth inhibition caused by high expression of the MevT operon", "setting": "[1]; E. coli DP10 pBad33MevT, 100 μg/ml with 400 μg/ml Brij, baffled shake flasks", "value": "completely alleviated the growth inhibition"}, {"measurement": "growth of cells expressing HMGS alone", "setting": "[1]; E. coli DP10 pHMGS, 100 μg/ml with 400 μg/ml Brij, baffled shake flasks", "value": "only improving the growth"}, {"measurement": "growth of MevT expressing cells (pBad33MevT)", "setting": "[2]", "value": "improved the growth"}, {"measurement": "growth of cells containing pHMGS", "setting": "[2]", "value": "clear, positive effect on the growth"}, {"measurement": "growth at non-permissive temperatures", "setting": "[3]", "value": "shown to grow at non-permissive temperatures"}]}
{"smiles": "[Cl-].[Na+]", "note": "[NaCl]", "values": [{"measurement": "osmolality of the culture medium", "setting": "culture medium containing NaCl at 0.5 g/L", "value": "about 125 mOsm/kg H2O"}, {"measurement": "osmolality of the culture medium", "setting": "culture medium containing NaCl at 10 g/L", "value": "about 452 mOsm/kg H2O"}, {"measurement": "growth of the empty vector control strain", "setting": "[4]; DH10B containing pBad33", "value": "did not significantly affect"}, {"measurement": "growth inhibition of E. coli cells expressing the MevT operon from pBad33MevT", "setting": "[4]; DH10B, 2 mM arabinose", "value": "effectively alleviated the growth inhibition"}]}
{"smiles": "CCCCCC/C=C\\CCCCCCCC(=O)O", "note": "[cis-Δ^9-16:1, palmitoleic acid]", "values": [{"measurement": "growth of MevT expressing cells (pBad33MevT)", "setting": "[2]", "value": "detrimental to the growth"}, {"measurement": "growth of cells containing pHMGS", "setting": "[2]", "value": "detrimental to the growth"}, {"measurement": "growth at non-permissive temperatures", "setting": "[3]", "value": "not"}]}
{"smiles": "CCCCCCCC/C=C\\CCCCCCCC(=O)O", "note": "[cis-Δ^9-18:1, oleic acid]", "values": [{"measurement": "growth of MevT expressing cells (pBad33MevT)", "setting": "[2]", "value": "to a lesser extent, cis-Δ^9-18:1 improved the growth"}, {"measurement": "growth under non-permissive conditions", "setting": "[5]", "value": "can grow"}]}
{"smiles": "CC(O)(CCO)CC(=O)O", "note": "(stereo not drawn) [mevalonate]", "values": [{"measurement": "production of amorphadiene", "setting": "[6]", "value": "increased the production of amorphadiene"}, {"measurement": "growth of E. coli", "setting": "E. coli", "value": "no significant effect on the growth"}]}
